Source: article PMC12210654, “Palazestrant, a novel oral Complete Estrogen Receptor Antagonist (CERAN) and Selective Estrogen Receptor Degrader (SERD), in patients with ER+/HER2− advanced or metastatic breast cancer: phase 1/2 study results” (Breast Cancer Research : BCR, 2025)

Experiment: Safety: adverse events (NCI CTCAE v5.0), electrocardiograms
Type: in vivo, human
Conditions: phase 1a; for TEAE Neutropenia, Toxicity Grade All: includes neutropenia and neutrophil count decreased
Protocol: Safety assessments included the monitoring of AEs, clinical laboratory parameters, electrocardiograms, and vital signs. AE severity was graded according to the National Cancer Institute Common Terminology Criteria for Adverse Events (version 5.0).
All DLT analyses (phase 1a) were performed in patients enrolled in the study during cycle 1 and who either received 75% of the planned palazestrant doses or experienced a DLT during cycle 1. All PK analyses were performed in patients who received at least 1 dose of palazestrant and had adequate postbaseline PK samples for characterization of PK parameters. All safety analyses were performed and PFS assessed in patients who received at least 1 dose of palazestrant. Clinical response (CR or PR) was assessed in patients who received at least 1 cycle of palazestrant, had measurable disease at baseline, and had at least 1 postbaseline tumor assessment. CBR was assessed in patients who received at least 1 cycle of palazestrant, had at least 1 postbaseline tumor assessment, and started their first dose at least 24 weeks before data cutoff. Patients who discontinued study treatment without radiographic progression within 24 weeks from the first dose were not included in the CBR analysis. PK parameters were estimated using conventional noncompartmental methods. For CBR, estimates were accompanied by 2-sided 95% confidence intervals (95% CIs). For PFS, Kaplan–Meier analyses were used to determine medians, event-free rates, and 95% CIs. For all other outcomes, categorical data were analyzed using frequencies and percentages, and continuous data were analyzed using means (standard deviation) or medians (range), as appropriate.

CCCN1CC(Oc2ccc([C@@H]3c4[nH]c5ccccc5c4C[C@@H](C)N3CC(C)(C)F)cc2)C1 [palazestrant, Palazestrant]
2 (33.3): TEAE Nausea, Toxicity Grade All (90 mg (N=6)) | TEAE Fatigue, Toxicity Grade All (120 mg (N=6)) | TEAE Vomiting, Toxicity Grade All (120 mg (N=6)) | TEAE Neutropenia, Toxicity Grade All (120 mg (N=6))
5 (71.4): TEAE Vomiting, Toxicity Grade All (300 mg (N=7))
5 (83.3): TEAE Nausea, Toxicity Grade All (120 mg (N=6))
4 (80.0): TEAE Nausea, Toxicity Grade All (150 mg (N=5))
1 (16.7): TEAE Neutropenia, Toxicity Grade All (60 mg (N=6)) | TEAE Constipation, Toxicity Grade All (90 mg (N=6)) | TEAE Decreased appetite, Toxicity Grade All (90 mg (N=6)) | TEAE Headache, Toxicity Grade All (90 mg (N=6)) | TEAE Vomiting, Toxicity Grade All (90 mg (N=6)) | TEAE Decreased appetite, Toxicity Grade All (120 mg (N=6)) | TEAE Diarrhea, Toxicity Grade All (120 mg (N=6)) | TEAE Headache, Toxicity Grade All (120 mg (N=6)) | TEAE Maculopapular rash, Toxicity Grade All (120 mg (N=6)) | TEAE Neutropenia, Toxicity Grade G4 (120 mg (N=6)) | TEAE Vomiting, Toxicity Grade G3 (120 mg (N=6))
10 (23.8): TEAE Constipation, Toxicity Grade All (Total (N=42)) | TEAE Decreased appetite, Toxicity Grade All (Total (N=42)) | TEAE Neutropenia, Toxicity Grade All (Total (N=42))
2 (4.8): TEAE Nausea, Toxicity Grade G3 (Total (N=42))
1 (14.3): TEAE Vomiting, Toxicity Grade All (210 mg (N=7)) | TEAE Neutropenia, Toxicity Grade All (210 mg (N=7)) | TEAE Diarrhea, Toxicity Grade All (300 mg (N=7)) | TEAE Nausea, Toxicity Grade G3 (300 mg (N=7)) | TEAE Neutropenia, Toxicity Grade G4 (300 mg (N=7))
0: TEAE Vomiting, Toxicity Grade G3 (60 mg (N=6)) | TEAE Vomiting, Toxicity Grade G4 (60 mg (N=6)) | TEAE Constipation, Toxicity Grade G3 (90 mg (N=6)) | TEAE Constipation, Toxicity Grade G4 (90 mg (N=6)) | TEAE Decreased appetite, Toxicity Grade G3 (90 mg (N=6)) | TEAE Decreased appetite, Toxicity Grade G4 (90 mg (N=6)) | TEAE Diarrhea, Toxicity Grade All (90 mg (N=6)) | TEAE Diarrhea, Toxicity Grade G3 (90 mg (N=6)) | TEAE Diarrhea, Toxicity Grade G4 (90 mg (N=6)) | TEAE Fatigue, Toxicity Grade All (90 mg (N=6)) | TEAE Fatigue, Toxicity Grade G3 (90 mg (N=6)) | TEAE Fatigue, Toxicity Grade G4 (90 mg (N=6)) | TEAE Headache, Toxicity Grade G3 (90 mg (N=6)) | TEAE Headache, Toxicity Grade G4 (90 mg (N=6)) | TEAE Maculopapular rash, Toxicity Grade All (90 mg (N=6)) | TEAE Maculopapular rash, Toxicity Grade G3 (90 mg (N=6)) | TEAE Maculopapular rash, Toxicity Grade G4 (90 mg (N=6)) | TEAE Nausea, Toxicity Grade G3 (90 mg (N=6)) | TEAE Nausea, Toxicity Grade G4 (90 mg (N=6)) | TEAE Neutropenia, Toxicity Grade G3 (90 mg (N=6)) | TEAE Neutropenia, Toxicity Grade G4 (90 mg (N=6)) | TEAE Vomiting, Toxicity Grade G3 (90 mg (N=6)) | TEAE Vomiting, Toxicity Grade G4 (90 mg (N=6)) | TEAE Neutropenia, Toxicity Grade All (90 mg (N=6)) | TEAE Constipation, Toxicity Grade All (120 mg (N=6)) | TEAE Constipation, Toxicity Grade G3 (120 mg (N=6)) | TEAE Constipation, Toxicity Grade G4 (120 mg (N=6)) | TEAE Decreased appetite, Toxicity Grade G3 (120 mg (N=6)) | TEAE Decreased appetite, Toxicity Grade G4 (120 mg (N=6)) | TEAE Diarrhea, Toxicity Grade G3 (120 mg (N=6)) | TEAE Diarrhea, Toxicity Grade G4 (120 mg (N=6)) | TEAE Fatigue, Toxicity Grade G3 (120 mg (N=6)) | TEAE Fatigue, Toxicity Grade G4 (120 mg (N=6)) | TEAE Headache, Toxicity Grade G3 (120 mg (N=6)) | TEAE Headache, Toxicity Grade G4 (120 mg (N=6)) | TEAE Maculopapular rash, Toxicity Grade G3 (120 mg (N=6)) | TEAE Maculopapular rash, Toxicity Grade G4 (120 mg (N=6)) | TEAE Nausea, Toxicity Grade G3 (120 mg (N=6)) | TEAE Nausea, Toxicity Grade G4 (120 mg (N=6)) | TEAE Neutropenia, Toxicity Grade G3 (120 mg (N=6)) | TEAE Vomiting, Toxicity Grade G4 (120 mg (N=6)) | TEAE Constipation, Toxicity Grade All (150 mg (N=5)) | TEAE Constipation, Toxicity Grade G3 (150 mg (N=5)) | TEAE Constipation, Toxicity Grade G4 (150 mg (N=5)) | TEAE Decreased appetite, Toxicity Grade G3 (150 mg (N=5)) | TEAE Decreased appetite, Toxicity Grade G4 (150 mg (N=5)) | TEAE Diarrhea, Toxicity Grade G3 (150 mg (N=5)) | TEAE Diarrhea, Toxicity Grade G4 (150 mg (N=5)) | TEAE Fatigue, Toxicity Grade G4 (150 mg (N=5)) | TEAE Headache, Toxicity Grade G3 (150 mg (N=5)) | TEAE Headache, Toxicity Grade G4 (150 mg (N=5)) | TEAE Maculopapular rash, Toxicity Grade All (150 mg (N=5)) | TEAE Maculopapular rash, Toxicity Grade G3 (150 mg (N=5)) | TEAE Maculopapular rash, Toxicity Grade G4 (150 mg (N=5)) | TEAE Nausea, Toxicity Grade G4 (150 mg (N=5)) | TEAE Neutropenia, Toxicity Grade G3 (150 mg (N=5)) | TEAE Vomiting, Toxicity Grade G3 (150 mg (N=5)) | TEAE Vomiting, Toxicity Grade G4 (150 mg (N=5)) | TEAE Constipation, Toxicity Grade G3 (210 mg (N=7)) | TEAE Constipation, Toxicity Grade G4 (210 mg (N=7)) | TEAE Decreased appetite, Toxicity Grade G3 (210 mg (N=7)) | TEAE Decreased appetite, Toxicity Grade G4 (210 mg (N=7)) | TEAE Diarrhea, Toxicity Grade All (210 mg (N=7)) | TEAE Diarrhea, Toxicity Grade G3 (210 mg (N=7)) | TEAE Diarrhea, Toxicity Grade G4 (210 mg (N=7)) | TEAE Fatigue, Toxicity Grade G3 (210 mg (N=7)) | TEAE Fatigue, Toxicity Grade G4 (210 mg (N=7)) | TEAE Headache, Toxicity Grade All (210 mg (N=7)) | TEAE Headache, Toxicity Grade G3 (210 mg (N=7)) | TEAE Headache, Toxicity Grade G4 (210 mg (N=7)) | TEAE Maculopapular rash, Toxicity Grade G3 (210 mg (N=7)) | TEAE Maculopapular rash, Toxicity Grade G4 (210 mg (N=7)) | TEAE Nausea, Toxicity Grade G3 (210 mg (N=7)) | TEAE Nausea, Toxicity Grade G4 (210 mg (N=7)) | TEAE Neutropenia, Toxicity Grade G3 (210 mg (N=7)) | TEAE Neutropenia, Toxicity Grade G4 (210 mg (N=7)) | TEAE Vomiting, Toxicity Grade G3 (210 mg (N=7)) | TEAE Vomiting, Toxicity Grade G4 (210 mg (N=7)) | TEAE Constipation, Toxicity Grade G3 (300 mg (N=7)) | TEAE Constipation, Toxicity Grade G4 (300 mg (N=7)) | TEAE Decreased appetite, Toxicity Grade G3 (300 mg (N=7)) | TEAE Decreased appetite, Toxicity Grade G4 (300 mg (N=7)) | TEAE Diarrhea, Toxicity Grade G3 (300 mg (N=7)) | TEAE Diarrhea, Toxicity Grade G4 (300 mg (N=7)) | TEAE Fatigue, Toxicity Grade G3 (300 mg (N=7)) | TEAE Fatigue, Toxicity Grade G4 (300 mg (N=7)) | TEAE Headache, Toxicity Grade G3 (300 mg (N=7)) | TEAE Headache, Toxicity Grade G4 (300 mg (N=7)) | TEAE Maculopapular rash, Toxicity Grade G3 (300 mg (N=7)) | TEAE Maculopapular rash, Toxicity Grade G4 (300 mg (N=7)) | TEAE Nausea, Toxicity Grade G4 (300 mg (N=7)) | TEAE Neutropenia, Toxicity Grade G3 (300 mg (N=7)) | TEAE Vomiting, Toxicity Grade G3 (300 mg (N=7)) | TEAE Vomiting, Toxicity Grade G4 (300 mg (N=7)) | TEAE Constipation, Toxicity Grade G3 (Total (N=42)) | TEAE Constipation, Toxicity Grade G4 (Total (N=42)) | TEAE Decreased appetite, Toxicity Grade G3 (Total (N=42)) | TEAE Decreased appetite, Toxicity Grade G4 (Total (N=42)) | TEAE Diarrhea, Toxicity Grade G3 (Total (N=42)) | TEAE Diarrhea, Toxicity Grade G4 (Total (N=42)) | TEAE Fatigue, Toxicity Grade G4 (Total (N=42)) | TEAE Headache, Toxicity Grade G3 (Total (N=42)) | TEAE Headache, Toxicity Grade G4 (Total (N=42)) | TEAE Maculopapular rash, Toxicity Grade G3 (Total (N=42)) | TEAE Maculopapular rash, Toxicity Grade G4 (Total (N=42)) | TEAE Nausea, Toxicity Grade G4 (Total (N=42)) | TEAE Neutropenia, Toxicity Grade G3 (Total (N=42)) | TEAE Vomiting, Toxicity Grade G4 (Total (N=42))
9 (21.4): TEAE Headache, Toxicity Grade All (Total (N=42))
2 (40.0): TEAE Vomiting, Toxicity Grade All (150 mg (N=5)) | TEAE Neutropenia, Toxicity Grade All (150 mg (N=5))
1 (2.4): TEAE Fatigue, Toxicity Grade G3 (Total (N=42)) | TEAE Vomiting, Toxicity Grade G3 (Total (N=42))
25 (59.5): TEAE Nausea, Toxicity Grade All (Total (N=42))
4 (57.1): TEAE Constipation, Toxicity Grade All (210 mg (N=7)) | TEAE Nausea, Toxicity Grade All (210 mg (N=7)) | TEAE Fatigue, Toxicity Grade All (300 mg (N=7)) | TEAE Headache, Toxicity Grade All (300 mg (N=7))
2 (28.6): TEAE Fatigue, Toxicity Grade All (210 mg (N=7)) | TEAE Maculopapular rash, Toxicity Grade All (210 mg (N=7)) | TEAE Maculopapular rash, Toxicity Grade All (300 mg (N=7))
4 (9.5): TEAE Neutropenia, Toxicity Grade G4 (Total (N=42))
1 (20.0): TEAE Decreased appetite, Toxicity Grade All (150 mg (N=5)) | TEAE Diarrhea, Toxicity Grade All (150 mg (N=5)) | TEAE Fatigue, Toxicity Grade All (150 mg (N=5)) | TEAE Fatigue, Toxicity Grade G3 (150 mg (N=5)) | TEAE Headache, Toxicity Grade All (150 mg (N=5)) | TEAE Nausea, Toxicity Grade G3 (150 mg (N=5)) | TEAE Neutropenia, Toxicity Grade G4 (150 mg (N=5))
14 (33.3): TEAE Fatigue, Toxicity Grade All (Total (N=42))
3 (42.9): TEAE Decreased appetite, Toxicity Grade All (210 mg (N=7)) | TEAE Constipation, Toxicity Grade All (300 mg (N=7)) | TEAE Decreased appetite, Toxicity Grade All (300 mg (N=7)) | TEAE Neutropenia, Toxicity Grade All (300 mg (N=7))
13 (31.0): TEAE Vomiting, Toxicity Grade All (Total (N=42))
6 (85.7): TEAE Nausea, Toxicity Grade All (300 mg (N=7))
7 (16.7): TEAE Diarrhea, Toxicity Grade All (Total (N=42)) | TEAE Maculopapular rash, Toxicity Grade All (Total (N=42))
